Results published in PMC7026418, “The kinase polypharmacology landscape of clinical PARP inhibitors” (Scientific Reports, 2020).
Read-outs that look alike come from different tables or passages of the source. Values belong to the compound of their own block, whether it stands above or below them.

How the values were obtained:
Assay in all cases: biochemical
Set-up in all cases: DiscoveRx KINOMEscan active site-directed competition binding; percent of control kinase bound to immobilised ligand
[1] = biological target: T1, ABL1(Q252H)-phosphorylated (Homo sapiens, UniProt P00519, Q252H)
T1 construct: phosphorylated

[2] = biological target: WNK1 (Homo sapiens, UniProt Q9H4A3)
[3] = biological target: HIPK2 (Homo sapiens, UniProt Q9H2X6)
Chain of HIPK2 (Q9H2X6 whole entry): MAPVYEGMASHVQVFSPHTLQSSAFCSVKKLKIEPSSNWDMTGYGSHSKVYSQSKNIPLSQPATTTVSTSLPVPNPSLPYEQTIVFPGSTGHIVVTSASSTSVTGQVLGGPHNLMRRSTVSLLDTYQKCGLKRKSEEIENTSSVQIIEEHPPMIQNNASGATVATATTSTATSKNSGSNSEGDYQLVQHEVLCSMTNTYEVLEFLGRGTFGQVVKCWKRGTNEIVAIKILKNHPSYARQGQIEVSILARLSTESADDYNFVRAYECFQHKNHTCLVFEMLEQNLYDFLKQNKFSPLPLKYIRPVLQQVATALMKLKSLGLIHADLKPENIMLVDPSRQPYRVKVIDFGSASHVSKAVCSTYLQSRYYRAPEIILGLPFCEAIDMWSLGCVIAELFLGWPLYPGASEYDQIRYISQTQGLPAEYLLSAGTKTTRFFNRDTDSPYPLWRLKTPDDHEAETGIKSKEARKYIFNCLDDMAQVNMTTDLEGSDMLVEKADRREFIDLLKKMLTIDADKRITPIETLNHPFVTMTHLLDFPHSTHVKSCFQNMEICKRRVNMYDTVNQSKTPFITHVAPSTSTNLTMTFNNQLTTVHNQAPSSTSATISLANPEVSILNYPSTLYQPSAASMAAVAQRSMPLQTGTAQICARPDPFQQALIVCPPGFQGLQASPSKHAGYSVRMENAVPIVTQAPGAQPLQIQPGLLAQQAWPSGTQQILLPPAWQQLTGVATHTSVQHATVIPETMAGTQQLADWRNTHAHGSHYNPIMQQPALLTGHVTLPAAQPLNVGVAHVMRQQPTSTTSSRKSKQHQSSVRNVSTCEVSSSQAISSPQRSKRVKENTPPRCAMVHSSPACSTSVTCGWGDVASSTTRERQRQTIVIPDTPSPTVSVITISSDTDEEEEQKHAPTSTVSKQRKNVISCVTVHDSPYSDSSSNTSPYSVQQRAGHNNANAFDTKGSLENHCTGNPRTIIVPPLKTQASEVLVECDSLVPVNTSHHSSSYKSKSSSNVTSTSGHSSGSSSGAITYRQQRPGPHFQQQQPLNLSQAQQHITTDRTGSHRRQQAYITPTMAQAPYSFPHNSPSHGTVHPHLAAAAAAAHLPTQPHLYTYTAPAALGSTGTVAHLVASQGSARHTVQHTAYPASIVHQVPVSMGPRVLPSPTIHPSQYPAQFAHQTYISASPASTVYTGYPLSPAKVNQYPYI

[4] = biological target: T2, NIK (Homo sapiens, UniProt Q99558)
T2 construct: gene MAP3K14
T2 sequence (Q99558 whole entry): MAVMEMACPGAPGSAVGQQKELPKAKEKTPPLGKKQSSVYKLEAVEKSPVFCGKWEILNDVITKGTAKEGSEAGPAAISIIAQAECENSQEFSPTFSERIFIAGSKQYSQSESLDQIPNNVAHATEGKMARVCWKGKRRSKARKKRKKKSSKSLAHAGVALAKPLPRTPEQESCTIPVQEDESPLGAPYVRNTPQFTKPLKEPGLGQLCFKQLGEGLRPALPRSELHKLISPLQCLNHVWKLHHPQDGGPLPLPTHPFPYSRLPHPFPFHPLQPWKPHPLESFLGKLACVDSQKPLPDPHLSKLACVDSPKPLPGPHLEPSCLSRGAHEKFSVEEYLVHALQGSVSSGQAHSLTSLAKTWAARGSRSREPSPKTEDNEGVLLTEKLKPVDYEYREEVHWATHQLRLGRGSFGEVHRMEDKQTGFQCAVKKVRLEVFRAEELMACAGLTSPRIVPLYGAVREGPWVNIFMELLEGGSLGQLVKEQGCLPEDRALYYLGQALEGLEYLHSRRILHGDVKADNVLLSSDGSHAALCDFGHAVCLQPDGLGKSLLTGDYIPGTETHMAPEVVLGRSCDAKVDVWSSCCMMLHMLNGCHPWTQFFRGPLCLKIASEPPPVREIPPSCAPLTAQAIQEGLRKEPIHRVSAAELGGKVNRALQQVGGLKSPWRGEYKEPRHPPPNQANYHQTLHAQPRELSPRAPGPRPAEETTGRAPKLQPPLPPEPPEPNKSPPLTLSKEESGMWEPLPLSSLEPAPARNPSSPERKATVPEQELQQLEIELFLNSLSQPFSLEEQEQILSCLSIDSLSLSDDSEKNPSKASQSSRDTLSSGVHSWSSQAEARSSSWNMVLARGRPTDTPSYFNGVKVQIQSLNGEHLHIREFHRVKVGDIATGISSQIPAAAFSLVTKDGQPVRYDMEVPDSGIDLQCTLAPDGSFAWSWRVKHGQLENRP

[5] = biological target: CDK2 (Homo sapiens, UniProt P24941)
[6] = biological target: T3, MST3 (Homo sapiens, UniProt Q9Y6E0)
T3 construct: gene STK24
T3 sequence (Q9Y6E0 whole entry): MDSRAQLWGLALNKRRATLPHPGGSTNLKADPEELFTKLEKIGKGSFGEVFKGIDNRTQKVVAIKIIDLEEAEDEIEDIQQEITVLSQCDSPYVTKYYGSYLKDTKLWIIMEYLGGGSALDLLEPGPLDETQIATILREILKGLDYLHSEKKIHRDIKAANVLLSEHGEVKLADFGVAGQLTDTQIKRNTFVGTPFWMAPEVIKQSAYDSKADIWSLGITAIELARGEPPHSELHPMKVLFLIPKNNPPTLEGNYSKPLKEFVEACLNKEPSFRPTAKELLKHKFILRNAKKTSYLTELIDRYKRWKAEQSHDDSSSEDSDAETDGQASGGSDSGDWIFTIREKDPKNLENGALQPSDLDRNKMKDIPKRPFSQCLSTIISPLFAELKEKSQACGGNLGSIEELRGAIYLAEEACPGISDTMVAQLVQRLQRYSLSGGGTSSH

[7] = biological target: KIT(V559D,V654A) (Homo sapiens, UniProt P10721, V559D/V654A)
Chain of KIT(V559D,V654A) (P10721 whole entry V559D/V654A): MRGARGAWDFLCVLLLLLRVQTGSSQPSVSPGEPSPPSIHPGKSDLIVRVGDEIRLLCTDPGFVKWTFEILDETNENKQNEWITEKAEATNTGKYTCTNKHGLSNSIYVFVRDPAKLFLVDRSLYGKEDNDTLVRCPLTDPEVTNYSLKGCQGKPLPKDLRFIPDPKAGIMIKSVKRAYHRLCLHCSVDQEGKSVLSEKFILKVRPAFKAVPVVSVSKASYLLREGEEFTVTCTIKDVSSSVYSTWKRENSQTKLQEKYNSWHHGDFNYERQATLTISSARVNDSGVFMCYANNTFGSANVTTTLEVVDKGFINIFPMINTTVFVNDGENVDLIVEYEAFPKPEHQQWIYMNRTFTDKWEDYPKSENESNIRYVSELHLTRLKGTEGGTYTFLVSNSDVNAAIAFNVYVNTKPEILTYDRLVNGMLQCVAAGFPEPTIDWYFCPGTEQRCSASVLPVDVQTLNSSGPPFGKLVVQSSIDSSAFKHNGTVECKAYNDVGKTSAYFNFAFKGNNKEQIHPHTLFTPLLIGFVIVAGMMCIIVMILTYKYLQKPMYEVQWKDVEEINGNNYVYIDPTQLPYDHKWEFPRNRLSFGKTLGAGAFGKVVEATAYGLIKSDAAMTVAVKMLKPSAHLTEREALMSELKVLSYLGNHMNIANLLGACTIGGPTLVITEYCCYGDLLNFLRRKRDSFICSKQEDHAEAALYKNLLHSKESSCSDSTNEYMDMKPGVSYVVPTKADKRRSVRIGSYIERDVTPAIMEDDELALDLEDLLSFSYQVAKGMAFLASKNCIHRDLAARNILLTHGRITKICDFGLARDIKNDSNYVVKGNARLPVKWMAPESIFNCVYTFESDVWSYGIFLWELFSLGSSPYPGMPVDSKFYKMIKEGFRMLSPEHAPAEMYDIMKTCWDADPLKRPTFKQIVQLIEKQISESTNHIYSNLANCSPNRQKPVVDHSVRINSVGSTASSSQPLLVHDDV

[8] = biological target: T4, MUSK (Homo sapiens, UniProt O15146)
T4 sequence (O15146 1-869): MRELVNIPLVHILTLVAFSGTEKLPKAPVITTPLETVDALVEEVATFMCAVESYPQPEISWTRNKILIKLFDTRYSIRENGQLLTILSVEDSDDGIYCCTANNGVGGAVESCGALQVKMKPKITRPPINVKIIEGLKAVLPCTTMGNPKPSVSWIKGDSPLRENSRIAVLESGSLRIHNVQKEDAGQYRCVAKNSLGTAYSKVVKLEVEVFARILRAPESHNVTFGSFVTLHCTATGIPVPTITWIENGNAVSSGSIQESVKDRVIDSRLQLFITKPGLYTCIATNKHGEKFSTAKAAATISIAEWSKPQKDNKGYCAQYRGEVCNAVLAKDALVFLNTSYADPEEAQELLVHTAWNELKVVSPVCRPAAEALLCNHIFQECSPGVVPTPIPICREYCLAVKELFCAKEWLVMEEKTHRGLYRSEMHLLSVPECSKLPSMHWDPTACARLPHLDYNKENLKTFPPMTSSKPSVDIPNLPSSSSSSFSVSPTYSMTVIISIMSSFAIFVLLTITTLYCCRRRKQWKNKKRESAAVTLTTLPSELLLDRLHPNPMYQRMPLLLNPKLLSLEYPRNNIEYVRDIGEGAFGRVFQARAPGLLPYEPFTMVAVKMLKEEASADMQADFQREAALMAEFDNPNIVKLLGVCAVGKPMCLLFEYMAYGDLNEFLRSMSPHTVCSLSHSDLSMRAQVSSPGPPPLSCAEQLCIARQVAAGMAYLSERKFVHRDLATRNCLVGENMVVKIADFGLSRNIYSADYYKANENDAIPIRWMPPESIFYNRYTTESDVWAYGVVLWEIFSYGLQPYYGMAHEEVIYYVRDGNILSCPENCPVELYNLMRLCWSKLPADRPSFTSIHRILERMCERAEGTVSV

[9] = biological target: T5, ZAP70 (Homo sapiens, UniProt P43403)
T5 sequence (P43403 1-619): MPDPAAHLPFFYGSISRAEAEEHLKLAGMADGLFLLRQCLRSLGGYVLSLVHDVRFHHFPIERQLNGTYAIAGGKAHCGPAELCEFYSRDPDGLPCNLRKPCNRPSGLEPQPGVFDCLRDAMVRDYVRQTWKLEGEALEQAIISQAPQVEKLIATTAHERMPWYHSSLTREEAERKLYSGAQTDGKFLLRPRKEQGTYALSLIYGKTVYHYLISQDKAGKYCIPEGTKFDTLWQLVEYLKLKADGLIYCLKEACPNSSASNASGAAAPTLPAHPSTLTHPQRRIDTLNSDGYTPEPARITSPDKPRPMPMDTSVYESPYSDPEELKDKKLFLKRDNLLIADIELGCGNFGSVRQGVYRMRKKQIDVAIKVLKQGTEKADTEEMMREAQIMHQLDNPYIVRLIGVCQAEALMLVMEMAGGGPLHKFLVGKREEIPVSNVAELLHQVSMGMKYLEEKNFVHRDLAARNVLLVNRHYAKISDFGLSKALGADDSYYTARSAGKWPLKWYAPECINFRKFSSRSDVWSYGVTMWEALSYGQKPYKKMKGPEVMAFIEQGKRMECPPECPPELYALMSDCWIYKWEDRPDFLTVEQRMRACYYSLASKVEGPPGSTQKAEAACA

[10] = biological target: PIK3CA(M1043I) (Homo sapiens, UniProt P42336, M1043I)
Chain of PIK3CA(M1043I) (P42336 whole entry M1043I): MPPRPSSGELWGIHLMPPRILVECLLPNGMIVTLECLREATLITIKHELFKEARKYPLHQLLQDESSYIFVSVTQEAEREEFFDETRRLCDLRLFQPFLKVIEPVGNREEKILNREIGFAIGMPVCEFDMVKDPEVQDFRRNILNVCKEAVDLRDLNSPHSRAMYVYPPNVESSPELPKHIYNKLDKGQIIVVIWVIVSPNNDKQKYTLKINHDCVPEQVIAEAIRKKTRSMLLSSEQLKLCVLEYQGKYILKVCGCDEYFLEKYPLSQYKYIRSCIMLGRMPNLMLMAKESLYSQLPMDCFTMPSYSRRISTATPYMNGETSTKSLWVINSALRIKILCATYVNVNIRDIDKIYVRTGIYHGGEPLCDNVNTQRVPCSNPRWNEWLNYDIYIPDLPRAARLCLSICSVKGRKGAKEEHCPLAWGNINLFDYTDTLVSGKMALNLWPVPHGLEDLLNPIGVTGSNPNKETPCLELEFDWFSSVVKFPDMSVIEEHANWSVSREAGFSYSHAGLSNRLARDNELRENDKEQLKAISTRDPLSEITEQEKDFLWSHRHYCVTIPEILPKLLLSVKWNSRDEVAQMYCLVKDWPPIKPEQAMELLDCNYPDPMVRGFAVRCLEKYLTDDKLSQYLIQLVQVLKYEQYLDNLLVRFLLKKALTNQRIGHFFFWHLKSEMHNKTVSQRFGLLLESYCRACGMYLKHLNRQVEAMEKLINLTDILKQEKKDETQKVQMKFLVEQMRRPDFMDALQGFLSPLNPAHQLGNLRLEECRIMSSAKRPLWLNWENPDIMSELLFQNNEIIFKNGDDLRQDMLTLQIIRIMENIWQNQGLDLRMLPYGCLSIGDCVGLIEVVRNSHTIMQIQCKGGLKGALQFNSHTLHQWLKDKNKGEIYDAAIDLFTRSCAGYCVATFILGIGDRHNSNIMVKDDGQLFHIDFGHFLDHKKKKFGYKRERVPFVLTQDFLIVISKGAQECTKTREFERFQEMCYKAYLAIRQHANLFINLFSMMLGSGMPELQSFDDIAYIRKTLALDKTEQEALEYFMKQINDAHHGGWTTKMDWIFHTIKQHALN

[11] = biological target: T6, MRCKA (Homo sapiens, UniProt Q5VT25)
T6 construct: gene CDC42BPA

[12] = biological target: NEK7 (Homo sapiens, UniProt Q8TDX7)
Chain of NEK7 (Q8TDX7 whole entry): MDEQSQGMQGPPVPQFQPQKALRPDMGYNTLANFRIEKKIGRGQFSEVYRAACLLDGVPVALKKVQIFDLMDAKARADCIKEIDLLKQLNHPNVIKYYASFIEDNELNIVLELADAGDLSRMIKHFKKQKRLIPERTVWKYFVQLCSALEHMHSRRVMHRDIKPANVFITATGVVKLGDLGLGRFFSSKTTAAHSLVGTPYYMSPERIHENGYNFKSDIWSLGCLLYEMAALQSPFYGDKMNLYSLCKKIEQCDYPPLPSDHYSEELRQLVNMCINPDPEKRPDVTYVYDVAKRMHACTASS

[13] = biological target: PIK3CA(C420R) (Homo sapiens, UniProt P42336, C420R)
Chain of PIK3CA(C420R) (P42336 whole entry C420R): as the sequence (P42336 whole entry M1043I) above, with C420R, I1043M counted along it

[14] = read-out: Olaparib / %Ctrl @ 10000nM
[15] = read-out: Talazoparib (BMN 673) / %Ctrl @ 10000nM
[16] = read-out: Rucaparib / %Ctrl @ 10000nM, binding competition, % of control
[17] = read-out: Niraparib (MK-4827) / %Ctrl @ 10000nM

percent of control binding at 10 µM [1, 14]: 71% | percent of control binding at 10 µM [2, 14]: 76% | percent of control binding at 10 µM [3, 14]: 95% | percent of control binding at 10 µM [4, 14]: 89% | percent of control binding at 10 µM [5, 14]: 93% | percent of control binding at 10 µM [6, 14]: 99% | percent of control binding at 10 µM [7, 14]: 95% | percent of control binding at 10 µM [8, 14]: 100% | percent of control binding at 10 µM [9, 14]: 93% | percent of control binding at 10 µM [10, 14]: 91% | percent of control binding at 10 µM [11, 14]: 98% | percent of control binding at 10 µM [12, 14]: 98%
Compound: O=C(c1cc(Cc2n[nH]c(=O)c3ccccc23)ccc1F)N1CCN(C(=O)C2CC2)CC1 [Olaparib]

percent of control binding at 10 µM [13, 15]: 100% | percent of control binding at 10 µM [1, 15]: 100% | percent of control binding at 10 µM [2, 15]: 100% | percent of control binding at 10 µM [3, 15]: 99% | percent of control binding at 10 µM [4, 15]: 100% | percent of control binding at 10 µM [5, 15]: 96% | percent of control binding at 10 µM [6, 15]: 99% | percent of control binding at 10 µM [7, 15]: 96% | percent of control binding at 10 µM [8, 15]: 100% | percent of control binding at 10 µM [9, 15]: 100% | percent of control binding at 10 µM [10, 15]: 94% | percent of control binding at 10 µM [11, 15]: 100% | percent of control binding at 10 µM [12, 15]: 80%
Compound: Cn1ncnc1[C@H]1c2n[nH]c(=O)c3cc(F)cc(c23)N[C@@H]1c1ccc(F)cc1 [Talazoparib]

percent of control binding at 10 µM [13, 16]: 74% | percent of control binding at 10 µM [1, 16]: 72% | percent of control binding at 10 µM [2, 16]: 81% | percent of control binding at 10 µM [3, 16]: 5.1% | percent of control binding at 10 µM [4, 16]: 74% | percent of control binding at 10 µM [5, 16]: 98% | percent of control binding at 10 µM [6, 16]: 89% | percent of control binding at 10 µM [7, 16]: 92% | percent of control binding at 10 µM [8, 16]: 96% | percent of control binding at 10 µM [9, 16]: 80% | percent of control binding at 10 µM [10, 16]: 77% | percent of control binding at 10 µM [11, 16]: 97% | percent of control binding at 10 µM [12, 16]: 100%
Compound: CNCc1ccc(-c2[nH]c3cc(F)cc4c3c2CCNC4=O)cc1 [Rucaparib]

Compound: NC(=O)c1cccc2cn(-c3ccc([C@@H]4CCCNC4)cc3)nc12 [Niraparib]
percent of control binding at 10 µM [13, 17]: 98% | percent of control binding at 10 µM [1, 17]: 51% | percent of control binding at 10 µM [2, 17]: 100% | percent of control binding at 10 µM [3, 17]: 1.1% | percent of control binding at 10 µM [4, 17]: 100% | percent of control binding at 10 µM [5, 17]: 100% | percent of control binding at 10 µM [6, 17]: 74% | percent of control binding at 10 µM [7, 17]: 90% | percent of control binding at 10 µM [8, 17]: 82% | percent of control binding at 10 µM [9, 17]: 100% | percent of control binding at 10 µM [10, 17]: 90% | percent of control binding at 10 µM [11, 17]: 100% | percent of control binding at 10 µM [12, 17]: 88%
